According to paper PMC3806051 (Journal of the American Chemical Society, 2013):
“And” between values parts separate entries of the source, which are not always exact repeats. Identical values can stand only once. “Also recorded” adds a separate entry of the source. Like-named read-outs stand apart in the source and are kept apart here. One block for each compound: values may come before it.

Experiments:
[1] = Isomerization in binding assay medium; type: physicochemical; settings: for proportion of isomer in the mixture: 100 h time-point, regardless which isomer was used at the beginning; for isomerization kinetics in binding assay medium: room temperature
[2] = Stability / isomerization in organic solvents; settings: CH2Cl2, THF, EtOAc, DMSO
[3] = target: recombinant human His-tagged MDM2 protein (residues 1–118) (Homo sapiens, UniProt Q00987); assay: FP-based competitive protein binding assay
[4] = system: SJSA-1 osteosarcoma tumor xenograft; type: in vivo; settings: for tumor growth inhibition as compared to vehicle control: end of treatment (day 26); for weight loss or other signs of toxicity: 5a 200 mg/kg, 5b 100 and 200 mg/kg daily oral 14 days
[5] = system: p53 activation in SJSA-1 tumor tissue; assay: Pharmacodynamic study, Western blotting of tumor tissue; type: in vivo, mouse; settings: single oral dose 200 mg/kg; for p53 activation in tumor tissue (accumulation of p53, MDM2 and p21): Western blot
[6] = Interconversion of isomers in MeCN-H2O; type: physicochemical; settings: for isomerization in CH3CN-H2O: over a period of up to four days
[7] = system: SJSA-1 osteosarcoma cell line; assay: cells; settings: Homo sapiens, read-out: IC50 cell growth inhibition
[8] = Isomerization in vivo in plasma and tumor tissue; settings: plasma and tumor tissue of SCID mice
[9] = Plasma concentration in tumor bearing SCID mice; settings: for Plasma Concentration of isomer: single oral 100 mg/kg, 24 h
[10] = Tumor tissue concentration in tumor bearing SCID mice; settings: for Tumor Concentration of isomer: single oral 100 mg/kg, 24 h
[11] = Isomerization in cell culture medium; type: physicochemical; settings: 2 days, starting from 5a or 5b
MDM2 = settings: ref 6b; cited from earlier work
[12] = system: animal models of human cancer; settings: ref 6b; cited from earlier work
[13] = binding assay medium, after 12 days
[14] = FP competitive binding to MDM2, incubation 15 min
[15] = calculated from IC50, FP competitive binding to MDM2, incubation 15 min

Structure (SMILES): CN(C)C(=O)[C@@H]1N[C@H](CC(C)(C)C)[C@]2(C(=O)Nc3cc(Cl)ccc32)[C@H]1c1cccc(Cl)c1 [1a, (2′R,3S,4′R,5′R)-6-chloro-4′-(3-chlorophenyl)-N,N-dimethyl-2′-neopentyl-2-oxospiro[indoline-3,3′-pyrrolidine]-5′-carboxamide]
remaining of starting isomer [1, 13]: 17.6% | converted into 1b ([1]; binding assay medium, after 12 days, started with 1a): 53% | stability in aprotic solvents [2]: relatively stable

remaining of starting isomer [1, 13]: 93.9%
Structure (SMILES): CN(C)C(=O)[C@@H]1N[C@@H](CC(C)(C)C)[C@@]2(C(=O)Nc3cc(Cl)ccc32)[C@H]1c1cccc(Cl)c1 [1b, (2′S,3R,4′R,5′R)-6-chloro-4′-(3-chlorophenyl)-N,N-dimethyl-2′-neopentyl-2-oxospiro[indoline-3,3′-pyrrolidine]-5′-carboxamide]

IC50 [3]: 565 ± 57 nM | Ki [3]: 76.2 ± 7.7 nM
Structure (SMILES): CNC(=O)[C@@H]1N[C@H](CC(C)(C)C)[C@]2(C(=O)Nc3cc(Cl)ccc32)[C@H]1c1cccc(Cl)c1 [2a, (2′R,3S,4′R,5′R)-6-chloro-4′-(3-chlorophenyl)-N-methyl-2′-neopentyl-2-oxospiro[indoline-3,3′-pyrrolidine]-5′-carboxamide]

IC50 [3]: 30.9 ± 2.9 nM | Ki [3]: 3.1 ± 0.3 nM
Structure (SMILES): CNC(=O)[C@@H]1N[C@@H](CC(C)(C)C)[C@@]2(C(=O)Nc3cc(Cl)ccc32)[C@H]1c1cccc(Cl)c1 [2b, (2′S,3R,4′R,5′R)-6-chloro-4′-(3-chlorophenyl)-N-methyl-2′-neopentyl-2-oxospiro[indoline-3,3′-pyrrolidine]-5′-carboxamide]

Structure (SMILES): CNC(=O)[C@@H]1N[C@H](CC(C)(C)C)[C@]2(C(=O)Nc3cc(Cl)ccc32)[C@H]1c1cccc(Cl)c1F [4a, (2′R,3S,4′S,5′R)-6-chloro-4′-(3-chloro-2-fluorophenyl)-Nmethyl-2′-neopentyl-2-oxospiro[indoline-3,3′-pyrrolidine]-5′-carboxamide]
IC50 [3, 14]: 387 ± 39 nM | Ki [3, 15]: 51.8 ± 4.2 nM

Structure (SMILES): CNC(=O)[C@@H]1N[C@@H](CC(C)(C)C)[C@@]2(C(=O)Nc3cc(Cl)ccc32)[C@H]1c1cccc(Cl)c1F [4b, (2′S,3R,4′S,5′R)-6-chloro-4′-(3-chloro-2-fluorophenyl)-Nmethyl-2′-neopentyl-2-oxospiro[indoline-3,3′-pyrrolidine]-5′-carboxamide]
IC50 [3, 14]: 25.9 ± 1.5 nM | Ki [3, 15]: 2.4 ± 0.2 nM | times more potent than the respective isomer a (binding to MDM2) ([3]; cis-cis isomer b versus trans-cis isomer a): > 15 times

Structure (SMILES): CC(C)(C)C[C@H]1N[C@@H](C(=O)NCC[C@H](O)CO)[C@H](c2cccc(Cl)c2F)[C@@]12C(=O)Nc1cc(Cl)ccc12 [5a, (2′R,3S,4′S,5′R)-6-chloro-4′-(3-chloro-2-fluorophenyl)-N-((S)-3,4-dihydroxybutyl)-2′-neopentyl-2-oxospiro[indoline-3,3′-pyrrolidine]-5′-carboxamide]
tumor growth inhibition as compared to vehicle control ([4]; 200 mg/kg daily oral gavage 14 days): 41% | weight loss or other signs of toxicity [4]: no significant weight loss | p53 activation in tumor tissue (accumulation of p53, MDM2 and p21) [5]: effectively activated p53 | isomerization in CH3CN-H2O [6]: gradually converted into a mixture of four isomers | proportion of isomer in the mixture ([1]; binding assay medium): ~40% | IC50 ([7]; SJSA-1, 24 h): 30300 ± 6230 nM | IC50 ([7]; SJSA-1, 48 h): 950 ± 160 nM | IC50 ([7]; SJSA-1, 72 h): 180 ± 20 nM | IC50 ([7]; SJSA-1, 96 h): 150 ± 30 nM | isomerization in vivo [8]: isomerizes very fast | Plasma Concentration of isomer ([9]; dosed with 5a): BLQ | Plasma Concentration of isomer ([9]; dosed with 5b): BLQ ^b | Tumor Concentration of isomer ([10]; dosed with 5a): BLQ | Tumor Concentration of isomer ([10]; dosed with 5b): BLQ

Structure (SMILES): CC(C)(C)C[C@@H]1N[C@@H](C(=O)NCC[C@H](O)CO)[C@H](c2cccc(Cl)c2F)[C@]12C(=O)Nc1cc(Cl)ccc12 [5b, (2′S,3R,4′S,5′R)-6-chloro-4′-(3-chloro-2-fluorophenyl)-N-((S)-3,4-dihydroxybutyl)-2′-neopentyl-2-oxospiro[indoline-3,3′-pyrrolidine]-5′-carboxamide]
tumor growth inhibition as compared to vehicle control ([4]; 100 mg/kg daily oral gavage 14 days): 67% | weight loss or other signs of toxicity [4]: no significant weight loss | apoptosis induction in tumor tissue (PARP cleavage, caspase-3 activation) ([5]; 24 h): stronger apoptosis induction than 5a | p53 activation in tumor tissue (accumulation of p53, MDM2 and p21) ([5]; 200 mg/kg): effectively activated p53; also recorded: clearly more potent than 5a | converted into a mixture of three other isomers ([6]; CH3CN-H2O, after 12 days): 4% | proportion of isomer in the mixture ([1]; binding assay medium): approximately 50% | isomerization kinetics in binding assay medium [1]: slow isomerization kinetic and was the most stable | proportion of 5b of all 4 isomers [11]: approximately 50% | IC50 ([7]; SJSA-1, 24 h): 18100 ± 2400 nM | IC50 ([7]; SJSA-1, 48 h): 630 ± 40 nM | IC50 ([7]; SJSA-1, 72 h): 180 ± 10 nM | isomerization in vivo [8]: isomerizes slowly | Plasma Concentration of isomer ([9]; dosed with 5a): BLQ | plasma concentration of 5b in mice dosed with 5b versus mice dosed with 5a ([9]; mouse, in vivo): 7 fold and 12 fold | Tumor Concentration of isomer ([10]; dosed with 5a): BLQ | Tumor Concentration of isomer ([10]; dosed with 5b): BLQ | tumor tissue concentration of 5b in mice dosed with 5b versus mice dosed with 5a ([10]; mouse, in vivo): 11 fold and 16 fold

Structure (SMILES): CC(C)(C)C[C@@H]1N[C@@H](C(=O)NCC[C@H](O)CO)[C@H](c2cccc(Cl)c2F)[C@@]12C(=O)Nc1cc(Cl)ccc12 [5c, (2′S,3S,4′S,5′R)-6-chloro-4′-(3-chloro-2-fluorophenyl)-N-((S)-3,4-dihydroxybutyl)-2′-neopentyl-2-oxospiro[indoline-3,3′-pyrrolidine]-5′-carboxamide]
isomerization in CH3CN-H2O [6]: gradually converted into a mixture of four isomers | isomerized into 5b ([1]; binding assay medium, within 30 min): approximately 20% | isomerization kinetics in binding assay medium [1]: very fast isomerization kinetics

Structure (SMILES): CC(C)(C)C[C@H]1N[C@@H](C(=O)NCC[C@H](O)CO)[C@H](c2cccc(Cl)c2F)[C@]12C(=O)Nc1cc(Cl)ccc12 [5d, (2′R,3R,4′S,5′R)-6-chloro-4′-(3-chloro-2-fluorophenyl)-N-((S)-3,4-dihydroxybutyl)-2′-neopentyl-2-oxospiro[indoline-3,3′-pyrrolidine]-5′-carboxamide]
isomerization in CH3CN-H2O [6]: gradually converted into a mixture of four isomers

IC50 [3]: 19500 ± 4000 nM | Ki [3]: 2700 ± 500 nM
Structure (SMILES): CCOC(=O)[C@@H]1N[C@H](CC(C)(C)C)[C@]2(C(=O)Nc3cc(Cl)ccc32)[C@H]1c1cccc(Cl)c1F [7a, (2′R,3S,4′S,5′R)-ethyl 6-chloro-4′-(3-chloro-2-fluorophenyl)-2′-neopentyl-2-oxospiro[indoline-3,3′-pyrrolidine]-5′-carboxylate]

IC50 [3]: 721 ± 79 nM | Ki [3]: 97.5 ± 10.7 nM
Structure (SMILES): CCOC(=O)[C@@H]1N[C@@H](CC(C)(C)C)[C@@]2(C(=O)Nc3cc(Cl)ccc32)[C@H]1c1cccc(Cl)c1F [7b, (2′S,3R,4′S,5′R)-ethyl 6-chloro-4′-(3-chloro-2-fluorophenyl)-2′-neopentyl-2-oxospiro[indoline-3,3′-pyrrolidine]-5′-carboxylate]

IC50 [3]: 498 ± 44 nM | Ki [3]: 67 ± 5.9 nM
Structure (SMILES): CC(C)(C)C[C@H]1N[C@@H](C(=O)O)[C@H](c2cccc(Cl)c2F)[C@@]12C(=O)Nc1cc(Cl)ccc12 [8a, (2′R,3S,4′S,5′R)-6-chloro-4′-(3-chloro-2-fluorophenyl)-2′-neopentyl-2-oxospiro[indoline-3,3′-pyrrolidine]-5′-carboxylic acid]

IC50 [3]: 55.1 ± 5.2 nM | Ki [3]: 6.4 ± 0.6 nM
Structure (SMILES): CC(C)(C)C[C@@H]1N[C@@H](C(=O)O)[C@H](c2cccc(Cl)c2F)[C@]12C(=O)Nc1cc(Cl)ccc12 [8b, (2′S,3R,4′S,5′R)-6-chloro-4′-(3-chloro-2-fluorophenyl)-2′-neopentyl-2-oxospiro[indoline-3,3′-pyrrolidine]-5′-carboxylic acid]

IC50 [3]: 22.5 ± 2.2 nM | Ki [3]: 1.9 ± 0.2 nM
Structure (SMILES): CC(C)(C)C[C@@H]1N[C@@H](C(N)=O)[C@H](c2cccc(Cl)c2F)[C@]12C(=O)Nc1cc(Cl)ccc12 [9b, (2′S,3R,4′S,5′R)-6-chloro-4′-(3-chloro-2-fluorophenyl)-2′-neopentyl-2-oxospiro[indoline-3,3′-pyrrolidine]-5′-carboxamide]

Structure (SMILES): CN(C)C(=O)[C@@H]1N[C@@H](CC(C)(C)C)[C@@]2(C(=O)Nc3cc(Cl)c(F)cc32)[C@H]1c1cccc(Cl)c1 [10b, (2′S,3R,4′R,5′R)-6-chloro-4′-(3-chlorophenyl)-5-fluoro-N,Ndimethyl-2′-neopentyl-2-oxospiro[indoline-3,3′-pyrrolidine]-5′-carboxamide]
IC50 [3, 14]: 835 ± 121 nM | Ki [3, 15]: 113 ± 16 nM

Structure (SMILES): CNC(=O)[C@@H]1N[C@@H](CC(C)(C)C)[C@@]2(C(=O)Nc3cc(Cl)c(F)cc32)[C@H]1c1cccc(Cl)c1 [11b, (2′S,3R,4′R,5′R)-6-chloro-4′-(3-chlorophenyl)-5-fluoro-Nmethyl-2′-neopentyl-2-oxospiro[indoline-3,3′-pyrrolidine]-5′-carboxamide]
IC50 [3, 14]: 112 ± 12 nM | Ki [3, 15]: 14.2 ± 1.1 nM

Structure (SMILES): CC(C)(C)C[C@H]1N[C@@H](C(=O)NCC[C@H](O)CO)[C@H](c2cccc(Cl)c2)[C@@]12C(=O)Nc1cc(Cl)c(F)cc12.Cl [MI-219]
binding affinity to MDM2 (MDM2): low nanomolar affinity | tumor growth in animal models of human cancer [12]: strongly inhibits tumor growth
